Reference: article PMC11655196, “Angiotensin-I-converting enzyme inhibitory peptides from eel (Anguilla japonica) bone collagen: preparation, identification, molecular docking, and protective function on HUVECs” (Frontiers in Nutrition, 2024)
Where two headings read alike, the source gives them in different places. One block for each substance: values may come before it. Ends that are not written are not given here.

Tests used:
[1] = from conger eel (Conger myriaster); read-out: IC50 (anti-oxidative effects); cited from earlier work
From the text: Anguilla japonica, also known as eel, is a type of aquatic food that contains high levels of protein, fat, vitamin A, vitamin E, and other nutrients ([11]). It is particularly abundant in collagen. Eel processing is mainly based on grilled eel, most of which is exported abroad. During the eel processing of eels, various by-products such as fish heads and bones are generated. These by-products are mainly used in the production of animal feed or discarded. Eel bones have approximately 13.25% of protein, 19.18% of lipid, 5.63% of ash, and 56.96% of moisture content ([12]). Some bioactive peptides ...

ACE [2] = details: read-out: IC50 (blood pressure lowering peptide, ACE), cited from earlier work
From the text: There were various peptides derived from food that are recognized for their ability to inhibit ACE activity, potentially leading to a reduction in blood pressure levels in vivo ([6]).

ACE [3] = target: T1, ACE (Oryctolagus cuniculus, UniProt P12822); experiment: ACE inhibition kinetics (Lineweaver-Burk plots); type: biochemical, rabbit; details: GPPGPPGL 0–100 μM, HHL 2 to 5 mM
T1 construct: ACE (≥2.0 U/mg, rabbit lung) was purchased; purchased Shanghai Yuanye Biotechnology Co., Ltd. (Shanghai, China); host or cells: rabbit lung (tissue-derived)
T1 sequence (P12822 34-1310): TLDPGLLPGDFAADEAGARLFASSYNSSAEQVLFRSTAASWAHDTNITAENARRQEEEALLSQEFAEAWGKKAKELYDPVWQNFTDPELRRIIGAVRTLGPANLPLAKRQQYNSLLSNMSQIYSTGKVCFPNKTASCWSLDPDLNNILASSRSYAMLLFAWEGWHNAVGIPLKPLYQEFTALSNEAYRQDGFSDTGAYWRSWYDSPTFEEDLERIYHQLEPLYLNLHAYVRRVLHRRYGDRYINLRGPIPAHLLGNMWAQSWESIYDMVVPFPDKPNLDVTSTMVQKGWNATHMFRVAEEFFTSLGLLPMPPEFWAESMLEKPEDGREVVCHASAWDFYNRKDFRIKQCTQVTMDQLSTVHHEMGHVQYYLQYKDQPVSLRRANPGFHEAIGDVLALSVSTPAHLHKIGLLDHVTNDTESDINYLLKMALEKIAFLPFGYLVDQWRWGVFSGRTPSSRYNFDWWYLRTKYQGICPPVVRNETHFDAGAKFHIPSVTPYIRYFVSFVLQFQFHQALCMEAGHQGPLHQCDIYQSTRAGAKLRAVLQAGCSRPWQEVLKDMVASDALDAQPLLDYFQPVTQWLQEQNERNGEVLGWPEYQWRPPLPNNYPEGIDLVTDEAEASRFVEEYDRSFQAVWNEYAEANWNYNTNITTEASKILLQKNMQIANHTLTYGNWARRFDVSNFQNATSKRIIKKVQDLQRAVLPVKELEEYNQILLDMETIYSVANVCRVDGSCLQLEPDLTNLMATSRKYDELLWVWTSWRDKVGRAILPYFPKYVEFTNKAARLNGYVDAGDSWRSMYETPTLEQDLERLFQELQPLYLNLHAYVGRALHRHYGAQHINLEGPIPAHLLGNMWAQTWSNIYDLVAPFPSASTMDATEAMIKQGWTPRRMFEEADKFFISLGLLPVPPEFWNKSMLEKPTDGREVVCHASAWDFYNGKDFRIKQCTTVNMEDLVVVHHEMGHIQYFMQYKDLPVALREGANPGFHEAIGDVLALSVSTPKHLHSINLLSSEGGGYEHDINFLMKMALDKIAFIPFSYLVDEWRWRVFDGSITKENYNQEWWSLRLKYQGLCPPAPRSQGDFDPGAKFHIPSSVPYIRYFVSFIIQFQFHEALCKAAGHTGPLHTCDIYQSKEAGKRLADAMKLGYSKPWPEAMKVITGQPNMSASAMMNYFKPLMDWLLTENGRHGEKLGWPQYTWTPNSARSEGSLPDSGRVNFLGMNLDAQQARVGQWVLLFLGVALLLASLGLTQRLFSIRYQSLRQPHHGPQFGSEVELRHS
Method: The ACE inhibition kinetics of the chosen peptides were determined using the method of previous research ([20]), using Lineweaver–Burk plots. The measurement of ACE activity was conducted at different concentrations of peptides, and HHL concentrations ranging from 2 to 5 mM were included. The Michaelis–Menten kinetic equation was used to compute the Michaelis–Menten constant (Km) and maximum reaction rate (Vmax) using data obtained from the Lineweaver–Burk plots.

Substance: LGLNGDDVN [literature anti-oxidative peptide from conger eel (Conger myriaster)]
IC50 [1]: 78.5 µM

Substance: Ile-Pro-Ile-Lys [literature peptide from Euphausia superba]
IC50 (ACE [2]; from Euphausia superba): 57.4 µM

Substance: Trp-Pro-Met-Gly-Phe [literature peptide from Cyclina sinensis]
IC50 (ACE [2]; from Cyclina sinensis): 789 µM

Km with increasing peptide level (ACE [3]): increase
Substance: GPPGPPGL [GPPGPPGL]

Substance: Gln-Val-Glu-Tyr [literature peptide from Gracilariopsis lemaneiformis]
IC50 (ACE [2]; from Gracilariopsis lemaneiformis): 474 µM
